According to ChEMBL document CHEMBL3608246, “Novel benzidine and diaminofluorene prolinamide derivatives as potent hepatitis C virus NS5A inhibitors” (Eur J Med Chem, 2015):

How the values were obtained:
Hepatitis C virus [1] = assay: Antiviral activity against HCV genotype 2a JFH5a infected in human Huh7.5.1 cells transfected with JFH5a-Rluc-ad34 assessed as reduction in virus proliferation by luciferase reporter gene assay; assay type: functional, cell-based, Hepacivirus hominis, Huh-7
Hepatitis C virus [2] = assay: Antiviral activity against HCV genotype 1b NK/R2AN infected in human Huh7.5.1 cells assessed as reduction in virus replication by luciferase reporter gene assay; assay type: functional, organism-based, Hepacivirus hominis, subtype 1b NK/R2AN, Huh-7
[3] = Cytotoxicity against human Huh7.5.1 cells; assay type: cell-based, Huh-7
[4] = Hepatitis C virus, genotype 2a JFH5a, Huh-7
[5] = Hepatitis C virus, subtype 1b NK/R2AN, Huh-7

| SMILES | EC50 (Hepatitis C virus [2]; [5]) [nM] | EC50 (Hepatitis C virus [2]; huh-7) [nM] | EC50 (Hepatitis C virus [1]; [4]) [nM] | CC50 [3] [nM] | EC50 (Hepatitis C virus [1]; huh-7) [nM] |
| --- | --- | --- | --- | --- | --- |
| COC(=O)N[C@@H](C(=O)N1CSC[C@H]1C(=O)Nc1ccc(-c2ccc(NC(=O)[C@@H]3CSCN3C(=O)[C@H](NC(=O)OC)c3ccccc3)cc2)cc1)c1ccccc1 | 0.027 | – | 15.5 | > 25000 | – |
| COC(=O)N[C@@H](C(=O)N1CCCC[C@@H]1C(=O)Nc1ccc(-c2ccc(NC(=O)[C@H]3CCCCN3C(=O)[C@H](NC(=O)OC)c3ccccc3)cc2)cc1)c1ccccc1 | 370 | – | 419 | > 25000 | – |
| COC(=O)N[C@@H](C(=O)N1CCC[C@@]1(C)C(=O)Nc1ccc(-c2ccc(NC(=O)[C@]3(C)CCCN3C(=O)[C@H](NC(=O)OC)c3ccccc3)cc2)cc1)c1ccccc1 | 2.2 | – | 3.3 | > 25000 | – |
| COC(=O)N[C@@H](C(=O)N1CCCC[C@H]1C(=O)Nc1ccc(-c2ccc(NC(=O)[C@@H]3CCCCN3C(=O)[C@H](NC(=O)OC)c3ccccc3)cc2)cc1)c1ccccc1 | 2.1 | – | 180 | > 25000 | – |
| COC(=O)N[C@@H](C(=O)N1CC(=O)C[C@H]1C(=O)Nc1ccc(-c2ccc(NC(=O)[C@@H]3CC(=O)CN3C(=O)[C@H](NC(=O)OC)c3ccccc3)cc2)cc1)c1ccccc1 | 0.044 | – | 0.26 | > 25000 | – |
| COC(=O)N[C@@H](C(=O)N1CCC[C@H]1C(=O)Nc1ccc(-c2ccc(NC(=O)[C@@H]3CCCN3C(=O)[C@H](NC(=O)OC)c3ccccc3)cc2C(F)(F)F)c(C(F)(F)F)c1)c1ccccc1 (stereo in doubt; form 3) | – | 2.4 | – | – | 24.6 |
| COC(=O)N[C@@H](C(=O)N1CCC[C@H]1C(=O)Nc1ccc(-c2ccc(NC(=O)[C@@H]3CCCN3C(=O)[C@H](NC(=O)OC)c3ccccc3)cc2)cc1)c1ccccc1 | – | – | – | > 25000 | – |
| COC(=O)N[C@@H](C(=O)N1CCC[C@H]1C(=O)Nc1ccc(-c2ccc(NC(=O)[C@@H]3CCCN3C(=O)[C@H](NC(=O)OC)c3ccccc3)cc2C(F)(F)F)c(C(F)(F)F)c1)c1ccccc1 (stereo in doubt; form 2) | – | 27.9 | – | > 25000 | 332 |

More lines, main results first:

| EC50 (Hepatitis C virus [2]; [5]) [nM] | EC50 (Hepatitis C virus [2]; huh-7) [nM] | SMILES | EC50 (Hepatitis C virus [1]; [4]) [nM] | CC50 [3] [nM] | EC50 (Hepatitis C virus [1]; huh-7) [nM] |
| --- | --- | --- | --- | --- | --- |
| 7.4 | – | COC(=O)N[C@@H](C(=O)N1CCC[C@H]1C(=O)Nc1ccc(-c2ccc(NC(=O)[C@@H]3CCCN3C(=O)[C@H](NC(=O)OC)c3ccccc3)c(C)c2)cc1C)c1ccccc1 | 193 | > 25000 | – |
| 0.007 | – | COC(=O)N[C@@H](C(=O)N1CCC[C@H]1C(=O)Nc1ccc(-c2ccc(NC(=O)[C@@H]3CCCN3C(=O)[C@H](NC(=O)OC)c3ccccc3)cc2Br)c(Br)c1)c1ccccc1 | 0.01 | > 25000 | – |
| 0.035 | – | COC(=O)N[C@@H](C(=O)N1CCC[C@H]1C(=O)Nc1ccc(-c2ccc(NC(=O)[C@@H]3CCCN3C(=O)[C@H](NC(=O)OC)c3ccccc3)cc2C)c(C)c1)c1ccccc1 | 0.32 | > 25000 | – |
| 0.004 | – | COC(=O)N[C@@H](C(=O)N1CCC[C@H]1C(=O)Nc1ccc2c(c1)C(=O)c1cc(NC(=O)[C@@H]3CCCN3C(=O)[C@H](NC(=O)OC)c3ccccc3)ccc1-2)c1ccccc1 | 4.3 | > 25000 | – |
| 0.009 | – | COC(=O)N[C@@H](C(=O)N1CCC[C@H]1C(=O)Nc1ccc2c(c1)Cc1cc(NC(=O)[C@@H]3CCCN3C(=O)[C@H](NC(=O)OC)c3ccccc3)ccc1-2)c1ccccc1 | 5.6 | > 25000 | – |
| 83 | – | COC(=O)N[C@@H](C(=O)N1CCC[C@@H]1C(=O)Nc1ccc(-c2ccc(NC(=O)[C@H]3CCCN3C(=O)[C@H](NC(=O)OC)c3ccccc3)cc2)cc1)c1ccccc1 | 1770 | > 25000 | – |
